# Like-named read-outs stand apart in the source and are kept apart here.
# Columns and labels:
# Assay type in all cases: in vivo
# Tetranychus cinnabarinus = test: Acaricidal activity, slide immersion of female adult mites: Tetranychus cinnabarinus; details: read-out: fatality rate on Tetranychus cinnabarinus
# Summary of the method: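 Female adult mites stuck dorsally on tape on slides (4 rows of 10), dipped 5 s in test solution, excess blotted, incubated 24 h. Mites with immobile feet on brush touch scored dead; fatality rate calculated.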
# [1] = system: Frankliniella occidentalis; test: Insecticidal activity, spray on pre-infested radish plants: Frankliniella occidentalis; details: for pest or weed control at 1 ppm / pest or weed control at 10 ppm / pest or weed control at 25 ppm: Frankliniella occidentalis, 144 h, read-out: fatality rate on Frankliniella occidentalis; for Fatality rate on Frankliniella occidentalis (%): Table 3
# Summary of the method: (§1)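 Mortality was assessed visually after 6 days at 25° C and 70% relative humidity, following spray application of the test compound to pre-infested 12-15 day old radish plants. Each test was run in triplicate.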
# Cnaphalocrocis medinalis = test: Insecticidal activity, spray on pre-infested radish plants: Cnaphalocrocis medinalis; details: 144 h, read-out: fatality rate on Cnaphalocrocis medinalis
# Summary of the method: (§2)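 Radish plants 12–15 days old, each pre-infested with 30–40 larvae, were sprayed with compound dissolved in a suitable solvent, in triplicate. Plants were held at 25 °C and 70% RH for 6 days. Mortality was then scored visually.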
# Pieris rapae = test: Insecticidal activity, spray on pre-infested radish plants: Pieris rapae; details: 144 h, read-out: fatality rate on Pieris rapae
# Summary of the method: as §2
# Plutella xylostella = test: Insecticidal activity, spray on pre-infested radish plants: Plutella xylostella; details: for pest or weed control at 0.1 ppm / pest or weed control at 1 ppm / pest or weed control at 10 ppm: Plutella xylostella, 144 h, read-out: fatality rate on Plutella xylostella; for Fatality rate on Plutella xylostella (%): Table 3
# Summary of the method: as §1
# Mythimna separata = test: Insecticidal activity, spray on pre-infested radish plants: Mythimna separata; details: for pest or weed control at 0.1 ppm / pest or weed control at 1 ppm / pest or weed control at 10 ppm: Mythimna separata, 144 h, read-out: fatality rate on Mythimna separata; for Fatality rate on Mythimna separata (%): Table 3
# Summary of the method: as §1
# Chilo suppressalis = test: Insecticidal activity, spray on pre-infested radish plants: Chilo suppressalis; details: for pest or weed control at 0.1 ppm / pest or weed control at 1 ppm / pest or weed control at 10 ppm: Chilo suppressalis, 144 h, read-out: fatality rate on Chilo suppressalis; for Fatality rate on Chilo suppressalis (%): Table 3
# Summary of the method: as §1
# Spodoptera litura = test: Insecticidal activity, spray on pre-infested radish plants: Spodoptera litura; details: 144 h, read-out: fatality rate on Spodoptera litura
# Summary of the method: as §1
smiles,measurement,setting,value
Cc1cc(C2=NOC(c3cc(Cl)c(F)c(Cl)c3)(C(F)(F)F)C2)ccc1C(=O)NCc1ncccc1Cl (stereo not drawn) [Compound 13],pest or weed control at 1 ppm,Tetranychus cinnabarinus; 24 h,> 80%
same,pest or weed control at 10 ppm,Tetranychus cinnabarinus; 24 h,> 80%
same,pest or weed control at 25 ppm,Tetranychus cinnabarinus; 24 h,> 80%
same,pest or weed control at 1 ppm,[1],> 80%
same,pest or weed control at 10 ppm,[1],> 80%
same,pest or weed control at 25 ppm,[1],> 80%
same,pest or weed control at 0.1 ppm,Cnaphalocrocis medinalis,> 80%
same,pest or weed control at 1 ppm,Cnaphalocrocis medinalis,> 80%
same,pest or weed control at 10 ppm,Cnaphalocrocis medinalis,> 80%
same,pest or weed control at 0.1 ppm,Pieris rapae,> 80%
same,pest or weed control at 1 ppm,Pieris rapae,> 80%
same,pest or weed control at 10 ppm,Pieris rapae,> 80%
same,pest or weed control at 0.1 ppm,Plutella xylostella,> 80%
same,pest or weed control at 1 ppm,Plutella xylostella,> 80%
same,pest or weed control at 10 ppm,Plutella xylostella,> 80%
same,pest or weed control at 0.1 ppm,Mythimna separata,> 80%
same,pest or weed control at 1 ppm,Mythimna separata,> 80%
same,pest or weed control at 10 ppm,Mythimna separata,> 80%
same,pest or weed control at 0.1 ppm,Chilo suppressalis,> 80%
same,pest or weed control at 1 ppm,Chilo suppressalis,> 80%
same,pest or weed control at 10 ppm,Chilo suppressalis,> 80%
same,pest or weed control at 0.1 ppm,Spodoptera litura,> 80%
same,pest or weed control at 1 ppm,Spodoptera litura,> 80%
same,pest or weed control at 10 ppm,Spodoptera litura,> 80%
Cc1cc(C2=NOC(c3cc(F)c(F)c(F)c3)(C(F)(F)F)C2)ccc1C(=O)NCc1cnc(Cl)cc1C(F)(F)F (stereo not drawn) [Compound 6],pest or weed control at 1 ppm,"Tetranychus cinnabarinus; dose 1 ppm, immersion 5 seconds, checked after 24 hours",> 80%
same,pest or weed control at 10 ppm,"Tetranychus cinnabarinus; dose 10 ppm, immersion 5 seconds, checked after 24 hours",> 80%
same,pest or weed control at 25 ppm,"Tetranychus cinnabarinus; dose 25 ppm, immersion 5 seconds, checked after 24 hours",> 80%
same,pest or weed control at 1 ppm,"[1]; dose 1 ppm, spray, 6 days",> 80%
same,pest or weed control at 10 ppm,"[1]; dose 10 ppm, spray, 6 days",> 80%
same,pest or weed control at 25 ppm,"[1]; dose 25 ppm, spray, 6 days",> 80%
same,pest or weed control at 0.1 ppm,"Cnaphalocrocis medinalis; dose 0.1 ppm, spray, 6 days",> 80%
same,pest or weed control at 1 ppm,"Cnaphalocrocis medinalis; dose 1 ppm, spray, 6 days",> 80%
same,pest or weed control at 10 ppm,"Cnaphalocrocis medinalis; dose 10 ppm, spray, 6 days",> 80%
same,pest or weed control at 0.1 ppm,"Pieris rapae; dose 0.1 ppm, spray, 6 days",> 80%
same,pest or weed control at 1 ppm,"Pieris rapae; dose 1 ppm, spray, 6 days",> 80%
same,pest or weed control at 10 ppm,"Pieris rapae; dose 10 ppm, spray, 6 days",> 80%
same,pest or weed control at 0.1 ppm,"Plutella xylostella; dose 0.1 ppm, spray, 6 days",> 80%
same,pest or weed control at 1 ppm,"Plutella xylostella; dose 1 ppm, spray, 6 days",> 80%
same,pest or weed control at 10 ppm,"Plutella xylostella; dose 10 ppm, spray, 6 days",> 80%
same,pest or weed control at 0.1 ppm,"Mythimna separata; dose 0.1 ppm, spray, 6 days",> 80%
same,pest or weed control at 1 ppm,"Mythimna separata; dose 1 ppm, spray, 6 days",> 80%
same,pest or weed control at 10 ppm,"Mythimna separata; dose 10 ppm, spray, 6 days",> 80%
same,pest or weed control at 0.1 ppm,"Chilo suppressalis; dose 0.1 ppm, spray, 6 days",> 80%
same,pest or weed control at 1 ppm,"Chilo suppressalis; dose 1 ppm, spray, 6 days",> 80%
same,pest or weed control at 10 ppm,"Chilo suppressalis; dose 10 ppm, spray, 6 days",> 80%
same,pest or weed control at 0.1 ppm,"Spodoptera litura; dose 0.1 ppm, spray, 6 days",> 80%
same,pest or weed control at 1 ppm,"Spodoptera litura; dose 1 ppm, spray, 6 days",> 80%
same,pest or weed control at 10 ppm,"Spodoptera litura; dose 10 ppm, spray, 6 days",> 80%
Cc1cc(C2=NOC(c3cc(Cl)c(F)c(Cl)c3)(C(F)(F)F)C2)ccc1C(=O)NCc1cnc(Cl)cc1C(F)(F)F (stereo not drawn) [Compound 5],pest or weed control at 1 ppm,Tetranychus cinnabarinus; 24 h,> 80%
same,pest or weed control at 10 ppm,Tetranychus cinnabarinus; 24 h,> 80%
same,pest or weed control at 25 ppm,Tetranychus cinnabarinus; 24 h,> 80%
same,pest or weed control at 1 ppm,[1],> 80%
same,pest or weed control at 10 ppm,[1],> 80%
same,pest or weed control at 25 ppm,[1],> 80%
same,pest or weed control at 0.1 ppm,Cnaphalocrocis medinalis,> 80%
same,pest or weed control at 1 ppm,Cnaphalocrocis medinalis,> 80%
same,pest or weed control at 10 ppm,Cnaphalocrocis medinalis,> 80%
same,pest or weed control at 0.1 ppm,Pieris rapae,> 80%
same,pest or weed control at 1 ppm,Pieris rapae,> 80%
same,pest or weed control at 10 ppm,Pieris rapae,> 80%
same,pest or weed control at 0.1 ppm,Plutella xylostella,> 80%
same,pest or weed control at 1 ppm,Plutella xylostella,> 80%
same,pest or weed control at 10 ppm,Plutella xylostella,> 80%
same,pest or weed control at 0.1 ppm,Mythimna separata,> 80%
same,pest or weed control at 1 ppm,Mythimna separata,> 80%
same,pest or weed control at 10 ppm,Mythimna separata,> 80%
same,pest or weed control at 0.1 ppm,Chilo suppressalis,> 80%
same,pest or weed control at 1 ppm,Chilo suppressalis,> 80%
same,pest or weed control at 10 ppm,Chilo suppressalis,> 80%
same,pest or weed control at 0.1 ppm,Spodoptera litura,> 80%
same,pest or weed control at 1 ppm,Spodoptera litura,> 80%
same,pest or weed control at 10 ppm,Spodoptera litura,> 80%
"Cc1cc(C2=NOC(c3cc(Cl)c(F)c(Cl)c3)(C(F)(F)F)C2)ccc1C(=O)NCc1ccc(Cl)nc1 (stereo not drawn) [Compound 1, N-((6-chloropyridin-3-yl)methyl)-4-(5-(3,5-dichloro-4-fluorophenyl)-5-(trifluoromethyl)-4,5-dihydroisoxazol-3-yl)-2-methylbenzamide]",pest or weed control at 1 ppm,Tetranychus cinnabarinus; 24 h,> 80%
same,pest or weed control at 10 ppm,Tetranychus cinnabarinus; 24 h,> 80%
same,pest or weed control at 25 ppm,Tetranychus cinnabarinus; 24 h,> 80%
same,Fatality rate on Frankliniella occidentalis (%),[1]; 1 ppm,95%
same,Fatality rate on Frankliniella occidentalis (%),[1]; 10 ppm,100%
same,Fatality rate on Frankliniella occidentalis (%),[1]; 25 ppm,100%
same,pest or weed control at 1 ppm,[1],> 80%
same,pest or weed control at 10 ppm,[1],> 80%
same,pest or weed control at 25 ppm,[1],> 80%
same,pest or weed control at 0.1 ppm,Cnaphalocrocis medinalis,> 80%
same,pest or weed control at 1 ppm,Cnaphalocrocis medinalis,> 80%
same,pest or weed control at 10 ppm,Cnaphalocrocis medinalis,> 80%
same,pest or weed control at 0.1 ppm,Pieris rapae,> 80%
same,pest or weed control at 1 ppm,Pieris rapae,> 80%
same,pest or weed control at 10 ppm,Pieris rapae,> 80%
same,Fatality rate on Plutella xylostella (%),Plutella xylostella; 0.1 ppm,100%
same,Fatality rate on Plutella xylostella (%),Plutella xylostella; 1 ppm,100%
same,Fatality rate on Plutella xylostella (%),Plutella xylostella; 10 ppm,100%
same,pest or weed control at 0.1 ppm,Plutella xylostella,> 80%
same,pest or weed control at 1 ppm,Plutella xylostella,> 80%
same,pest or weed control at 10 ppm,Plutella xylostella,> 80%
same,Fatality rate on Mythimna separata (%),Mythimna separata; 0.1 ppm,95%
same,Fatality rate on Mythimna separata (%),Mythimna separata; 1 ppm,100%
same,Fatality rate on Mythimna separata (%),Mythimna separata; 10 ppm,100%
same,pest or weed control at 0.1 ppm,Mythimna separata,> 80%
same,pest or weed control at 1 ppm,Mythimna separata,> 80%
same,pest or weed control at 10 ppm,Mythimna separata,> 80%
same,Fatality rate on Chilo suppressalis (%),Chilo suppressalis; 0.1 ppm,90%
same,Fatality rate on Chilo suppressalis (%),Chilo suppressalis; 1 ppm,100%
same,Fatality rate on Chilo suppressalis (%),Chilo suppressalis; 10 ppm,100%
same,pest or weed control at 0.1 ppm,Chilo suppressalis,> 80%
same,pest or weed control at 1 ppm,Chilo suppressalis,> 80%
same,pest or weed control at 10 ppm,Chilo suppressalis,> 80%
same,pest or weed control at 0.1 ppm,Spodoptera litura,> 80%
same,pest or weed control at 1 ppm,Spodoptera litura,> 80%
same,pest or weed control at 10 ppm,Spodoptera litura,> 80%
